# Target: T1, PBP3 from Acinetobacter baumannii (ATCC 19606) (Acinetobacter baumannii, UniProt A0ABX6CK25)
# T1 sequence (A0ABX6CK25 64-610): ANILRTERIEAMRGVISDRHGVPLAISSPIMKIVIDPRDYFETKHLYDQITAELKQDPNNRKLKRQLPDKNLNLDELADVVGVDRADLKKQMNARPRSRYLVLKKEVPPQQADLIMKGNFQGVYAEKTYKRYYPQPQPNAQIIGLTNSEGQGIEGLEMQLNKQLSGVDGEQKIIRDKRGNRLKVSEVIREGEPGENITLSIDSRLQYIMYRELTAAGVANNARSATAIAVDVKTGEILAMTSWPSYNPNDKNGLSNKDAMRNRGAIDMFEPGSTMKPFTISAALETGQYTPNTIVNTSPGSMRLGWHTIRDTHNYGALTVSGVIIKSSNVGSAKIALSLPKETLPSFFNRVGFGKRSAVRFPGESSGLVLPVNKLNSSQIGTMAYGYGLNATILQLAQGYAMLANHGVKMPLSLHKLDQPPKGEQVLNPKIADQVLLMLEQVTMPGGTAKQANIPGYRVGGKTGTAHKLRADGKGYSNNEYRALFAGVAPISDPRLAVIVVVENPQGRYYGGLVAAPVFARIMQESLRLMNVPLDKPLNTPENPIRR
# Experiment: Bocillin-FL fluorescence polarization competition binding, A. baumannii PBP3
# Settings: fluorescence polarization competition binding assay using Bocillin-FL; read-out: A. baumannii PBP3 Potency
# Summary of the method: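 Purified PBP was preincubated with inhibitor (E. coli PBP3 1.5 μM, 30 min; P. aeruginosa PBP3 0.75 μM, A. baumannii PBP3 0.2 μM and PBP1a 1 μM, 15 min), then Bocillin-FL (0.1 μM; 0.05 μM for PBP1a) added and FP read up to 60 min. EC50 = 50% loss of bound probe.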
row,SMILES,IC50
1,"O=C(NCCN1CCN(C(=O)NC(C(=O)N[C@H]2Cc3ccc(F)c(C(=O)O)c3OB2O)c2cc(F)c(O)c(O)c2Cl)C(=O)C1=O)c1ccc(O)cc1 (stereo partly drawn) [Example 214, (3R)-3-(2-(2-chloro-5-fluoro-3,4-dihydroxyphenyl)-2-(4-(2-(4-hydroxybenzamido)ethyl)-2,3-dioxopiperazine-1-carboxamido)acetamido)-7-fluoro-2-hydroxy-3,4-dihydro-2H-benzo[e][1,2]oxaborinine-8-carboxylic acid]",< 10 µM
2,"O=C(NCCN1CCN(C(=O)NC(C(=O)N[C@H]2Cc3ccc(F)c(C(=O)O)c3OB2O)c2cc(F)c(O)c(O)c2Cl)C(=O)C1=O)c1cccc(O)c1 (stereo partly drawn) [Example 215, (3R)-3-(2-(2-chloro-5-fluoro-3,4-dihydroxyphenyl)-2-(4-(2-(3-hydroxybenzamido)ethyl)-2,3-dioxopiperazine-1-carboxamido)acetamido)-7-fluoro-2-hydroxy-3,4-dihydro-2H-benzo[e][1,2]oxaborinine-8-carboxylic acid]",< 10 µM
3,"O=C(NCCN1CCN(C(=O)NC(C(=O)N[C@H]2Cc3ccc(F)c(C(=O)O)c3OB2O)c2cc(F)c(O)c(O)c2Cl)C(=O)C1=O)c1ccncc1 (stereo partly drawn) [Example 216, (3R)-3-(2-(2-chloro-5-fluoro-3,4-dihydroxyphenyl)-2-(4-(2-(isonicotinamido)ethyl)-2,3-dioxopiperazine-1-carboxamido)acetamido)-7-fluoro-2-hydroxy-3,4-dihydro-2H-benzo[e][1,2]oxaborinine-8-carboxylic acid]",< 10 µM
4,"O=C(NCCN1CCN(C(=O)NC(C(=O)N[C@H]2Cc3ccc(F)c(C(=O)O)c3OB2O)c2cc(F)c(O)c(O)c2Cl)C(=O)C1=O)c1cccnc1 (stereo partly drawn) [Example 217, (3R)-3-(2-(2-chloro-5-fluoro-3,4-dihydroxyphenyl)-2-(4-(2-(nicotinamido)ethyl)-2,3-dioxopiperazine-1-carboxamido)acetamido)-7-fluoro-2-hydroxy-3,4-dihydro-2H-benzo[e][1,2]oxaborinine-8-carboxylic acid]",< 10 µM
5,"O=C(NCCN1CCN(C(=O)NC(C(=O)N[C@H]2Cc3ccc(F)c(C(=O)O)c3OB2O)c2cc(F)c(O)c(O)c2Cl)C(=O)C1=O)c1nccs1 (stereo partly drawn) [Example 218, (3R)-3-(2-(2-chloro-5-fluoro-3,4-dihydroxyphenyl)-2-(2,3-dioxo-4-(2-(thiazole-2-carboxamido)ethyl)piperazine-1-carboxamido)acetamido)-7-fluoro-2-hydroxy-3,4-dihydro-2H-benzo[e][1,2]oxaborinine-8-carboxylic acid]",< 10 µM
6,"O=C(NCCN1CCN(C(=O)NC(C(=O)N[C@H]2Cc3ccc(F)c(C(=O)O)c3OB2O)c2cc(F)c(O)c(O)c2Cl)C(=O)C1=O)Nc1ccc(O)cc1 (stereo partly drawn) [Example 219, (3R)-3-(2-(2-chloro-5-fluoro-3,4-dihydroxyphenyl)-2-(4-(2-(3-(4-hydroxyphenyl)ureido)ethyl)-2,3-dioxopiperazine-1-carboxamido)acetamido)-7-fluoro-2-hydroxy-3,4-dihydro-2H-benzo[e][1,2]oxaborinine-8-carboxylic acid]",< 10 µM
7,"O=C(NCCN1CCN(C(=O)NC(C(=O)N[C@H]2Cc3ccc(F)c(C(=O)O)c3OB2O)c2cc(F)c(O)c(O)c2Cl)C(=O)C1=O)Nc1cccc(O)c1 (stereo partly drawn) [Example 220, (3R)-3-(2-(2-chloro-5-fluoro-3,4-dihydroxyphenyl)-2-(4-(2-(3-(3-hydroxyphenyl)ureido)ethyl)-2,3-dioxopiperazine-1-carboxamido)acetamido)-7-fluoro-2-hydroxy-3,4-dihydro-2H-benzo[e][1,2]oxaborinine-8-carboxylic acid]",< 10 µM
8,"O=C(NCCN1CCN(C(=O)N[C@@H](C(=O)N[C@H]2Cc3ccc(F)c(C(=O)O)c3OB2O)c2cc(F)c(O)c(O)c2Cl)C(=O)C1=O)Nc1ccncc1 [Example 221, (R)-3-((R)-2-(2-chloro-5-fluoro-3,4-dihydroxyphenyl)-2-(2,3-dioxo-4-(2-(3-(pyridin-4-yl)ureido)ethyl)piperazine-1-carboxamido)acetamido)-7-fluoro-2-hydroxy-3,4-dihydro-2H-benzo[e][1,2]oxaborinine-8-carboxylic acid]",< 10 µM
9,"O=C(NCCN1CCN(C(=O)N[C@@H](C(=O)N[C@H]2Cc3ccc(F)c(C(=O)O)c3OB2O)c2cc(F)c(O)c(O)c2Cl)C(=O)C1=O)Nc1cccnc1 [Example 222, (R)-3-((R)-2-(2-chloro-5-fluoro-3,4-dihydroxyphenyl)-2-(2,3-dioxo-4-(2-(3-(pyridin-3-yl)ureido)ethyl)piperazine-1-carboxamido)acetamido)-7-fluoro-2-hydroxy-3,4-dihydro-2H-benzo[e][1,2]oxaborinine-8-carboxylic acid]",< 10 µM
10,"CN(CCN1CCN(C(=O)NC(C(=O)N[C@H]2Cc3ccc(F)c(C(=O)O)c3OB2O)c2cc(F)c(O)c(O)c2Cl)C(=O)C1=O)S(=O)(=O)c1ccc(C(N)=O)cc1 (stereo partly drawn) [Example 223, (3R)-3-(2-(4-(2-((4-carbamoyl-N-methylphenyl)sulfonamido)ethyl)-2,3-dioxopiperazine-1-carboxamido)-2-(2-chloro-5-fluoro-3,4-dihydroxyphenyl)acetamido)-7-fluoro-2-hydroxy-3,4-dihydro-2H-benzo[e][1,2]oxaborinine-8-carboxylic acid]",< 10 µM
11,"CN(CCN1CCN(C(=O)NC(C(=O)N[C@H]2Cc3ccc(F)c(C(=O)O)c3OB2O)c2cc(F)c(O)c(O)c2Cl)C(=O)C1=O)S(=O)(=O)c1cccc(C(N)=O)c1 (stereo partly drawn) [Example 224, (3R)-3-(2-(4-(2-((3-carbamoyl-N-methylphenyl)sulfonamido)ethyl)-2,3-dioxopiperazine-1-carboxamido)-2-(2-chloro-5-fluoro-3,4-dihydroxyphenyl)acetamido)-7-fluoro-2-hydroxy-3,4-dihydro-2H-benzo[e][1,2]oxaborinine-8-carboxylic acid]",< 10 µM
12,"CN(CCN1CCN(C(=O)N[C@@H](C(=O)N[C@H]2Cc3ccc(F)c(C(=O)O)c3OB2O)c2cc(F)c(O)c(O)c2Cl)C(=O)C1=O)Cc1cccc(C(N)=O)c1 [Example 225, (R)-3-((R)-2-(4-(2-((3-carbamoylbenzyl)(methyl)amino)ethyl)-2,3-dioxopiperazine-1-carboxamido)-2-(2-chloro-5-fluoro-3,4-dihydroxyphenyl)acetamido)-7-fluoro-2-hydroxy-3,4-dihydro-2H-benzo[e][1,2]oxaborinine-8-carboxylic acid]",< 10 µM
13,"CN(CCN1CCN(C(=O)N[C@@H](C(=O)N[C@H]2Cc3ccc(F)c(C(=O)O)c3OB2O)c2cc(F)c(O)c(O)c2Cl)C(=O)C1=O)Cc1ccc(C(N)=O)cc1 [Example 226, (R)-3-((R)-2-(4-(2-((4-carbamoylbenzyl)(methyl)amino)ethyl)-2,3-dioxopiperazine-1-carboxamido)-2-(2-chloro-5-fluoro-3,4-dihydroxyphenyl)acetamido)-7-fluoro-2-hydroxy-3,4-dihydro-2H-benzo[e][1,2]oxaborinine-8-carboxylic acid]",< 10 µM
14,"O=C(NCCCN1CCN(C(=O)NC(C(=O)N[C@H]2Cc3ccc(F)c(C(=O)O)c3OB2O)c2cc(F)c(O)c(O)c2Cl)C(=O)C1=O)Nc1ccc(O)cc1 (stereo partly drawn) [Example 227, (3R)-3-(2-(2-chloro-5-fluoro-3,4-dihydroxyphenyl)-2-(4-(3-(3-(4-hydroxyphenyl)ureido)propyl)-2,3-dioxopiperazine-1-carboxamido)acetamido)-7-fluoro-2-hydroxy-3,4-dihydro-2H-benzo[e][1,2]oxaborinine-8-carboxylic acid]",< 10 µM
15,"O=C(NCCCN1CCN(C(=O)NC(C(=O)N[C@H]2Cc3ccc(F)c(C(=O)O)c3OB2O)c2cc(F)c(O)c(O)c2Cl)C(=O)C1=O)Nc1ccncc1 (stereo partly drawn) [Example 228, (3R)-3-(2-(2-chloro-5-fluoro-3,4-dihydroxyphenyl)-2-(2,3-dioxo-4-(3-(3-(pyridin-4-yl)ureido)propyl)piperazine-1-carboxamido)acetamido)-7-fluoro-2-hydroxy-3,4-dihydro-2H-benzo[e][1,2]oxaborinine-8-carboxylic acid]",< 10 µM
16,"O=C(O)c1c(F)ccc2c1OB(O)[C@@H](NC(=O)[C@H](NC(=O)N1CCN(CCNC(=O)[C@@H]3CCCN3)C(=O)C1=O)c1cc(F)c(O)c(O)c1Cl)C2 [Example 229, (R)-3-((R)-2-(2-chloro-5-fluoro-3,4-dihydroxyphenyl)-2-(2,3-dioxo-4-(2-((S)-pyrrolidine-2-carboxamido)ethyl)piperazine-1-carboxamido)acetamido)-7-fluoro-2-hydroxy-3,4-dihydro-2H-benzo[e][1,2]oxaborinine-8-carboxylic acid]",< 10 µM
17,"O=C(CN1CCN(C(=O)NC(C(=O)N[C@H]2Cc3ccc(F)c(C(=O)O)c3OB2O)c2cc(F)c(O)c(O)c2Cl)C(=O)C1=O)Nc1ccc(O)cc1 (stereo partly drawn) [Example 230, (3R)-3-(2-(2-chloro-5-fluoro-3,4-dihydroxyphenyl)-2-(4-(2-((4-hydroxyphenyl)amino)-2-oxoethyl)-2,3-dioxopiperazine-1-carboxamido)acetamido)-7-fluoro-2-hydroxy-3,4-dihydro-2H-benzo[e][1,2]oxaborinine-8-carboxylic acid]",< 10 µM

# Source: patent publication US20240270762A1, “PENICILLIN-BINDING PROTEIN INHIBITORS” (priority 2021, published 2024)
